# Assay results taken from patent US20100204157A1, “USE OF A PEPTIDE AS A THERAPEUTIC AGENT” (priority 2007, published 2010).
# Where no end group is shown, it is not given here.
# Legend:
# [1] = test system: HepG2-2.2.15 cells; experiment: Cell viability in HepG2-2.2.15 cells (dye uptake); format: cell-based; details: test peptide 10 micrograms per ml, dye uptake assay
# [2] = test system: CEM-SS cells; experiment: Cytotoxicity in CEM-SS cells (MTS); details: peptide 10 micrograms per ml, MTS
# [3] = test system: HIV-1IIIB; experiment: HIV-1 antiviral assay (CPE reduction, MTS); format: cell-based; details: peptide 10 micrograms per ml, 6 days post-infection
# [4] = test system: MRC-5 cells; details: human, 6 days
# Procedure: (§1) For cytotxicity testing, MRC-5 cells were seeded at 2,500 cells/well in 96 well plates using growth medium. […] The following day, peptide were added and tested in duplicates. After a 6 days incubation period, cell viability was measured using CellTiter 96 Solution (Promega). Plates were incubated for additional 4 hours at 37° C.
# [5] = test system: MRSA; experiment: Methicillin Resistant Staphylococcus Aureus (MRSA) assay; format: cell-based; details: MRSA growth; peptide 10 micrograms per ml; read visually
# [6] = Cell viability in HepG2-2.2.15 cells (dye uptake); format: cell-based; details: human, HepG2-2.2.15 cells (stable line containing HBV ayw genome), test peptide 10 micrograms per ml, dye uptake assay
# [7] = test system: Pseudomonas aeruginosa; experiment: Pseudomonas aeruginosa assay; format: cell-based; details: Pseudomonas aeruginosa growth; peptide 10 micrograms per ml; read visually
# Procedure: The antibacterial assay was conducted using clear, U-bottom 96-well microtiter plates. Cation-adjusted Mueller-Hinton Broth (MHB) was used for testing Pseudomonas aeruginosa. The peptide of the invention (0.1 ml of each—10 micrograms per ml—) were dispensed into wells in duplicate. Then the wells were inoculated with 5×10^5 CFU/mL Pseudomonas aeruginosa in 0.1 ml volume. For control purposes, each plate included 4 wells containing media without bacterial inoculum and 4 wells containing medium with inoculum but without peptide. The plates were incubated for 12 h at 37° C., and read visually 18-24 hours post-incubation. Growth control of Pseudomonas aeruginosa was examined first to determine adequacy of media preparations and growth conditions. Acceptable growth is defined as ≧2 mm wide button of cells at the bottom of each sample well, or obvious turbidity in the culture supernatant. Test wells were examined and scored as positive/negative for activity. A positive score for activity is based on complete inhibition of macroscopic growth of the test Pseudomonas aeruginosa.
# [8] = Cytotoxicity in CEM-SS cells (MTS); details: human
# [9] = Cytotoxicity in MRC-5 cells (CellTiter 96); details: human, MRC-5 cells (embryonal lung fibroblasts)
# Procedure: as §1
# [10] = test system: Streptococcus pneumoniae; experiment: Streptococcus pneumoniae assay; format: cell-based; details: Streptococcus pneumoniae growth; peptide 10 micrograms per ml; read visually
# Procedure: The antibacterial assay was conducted using clear, U-bottom 96-well microtiter plates. Cation-adjusted Mueller-Hinton Broth (MHB) was used for testing Streptococcus pneumoniae. The peptide of the invention (0.1 ml of each—10 micrograms per ml—) were dispensed into wells in duplicate. Then the wells were inoculated with 5×10^5 CFU/mL Streptococcus pneumoniae in 0.1 ml volume. For control purposes, each plate included 4 wells containing media without bacterial inoculum and 4 wells containing medium with inoculum but without peptide. The plates were incubated for 12 h at 37° C., and read visually 18-24 hours post-incubation. Growth control of Streptococcus pneumoniae was examined first to determine adequacy of media preparations and growth conditions. Acceptable growth is defined as ≧2 mm wide button of cells at the bottom of each sample well, or obvious turbidity in the culture supernatant. Test wells were examined and scored as positive/negative for activity. A positive score for activity is based on complete inhibition of macroscopic growth of the test Streptococcus pneumoniae.
compound,measurement,setting,value
"Nc1ccn([C@@H]2CS[C@H](CO)O2)c(=O)n1 [3TC, Lamivudine, reference compound]",% Cell Viability,[1],95.8%
"Cc1cn([C@H]2C[C@H](N=[N+]=[N-])[C@@H](CO)O2)c(=O)[nH]c1=O [AZT, reference compound]",% Cell Viability,[2],97%
same,% CPE reduction in HIV-1 infected CEM-SS cells,[3],99%
Nc1nc(O)c2ncn(COC(CO)CO)c2n1 [Ganciclovir],% Cell Viability,[4],100%
FFVAP [Phe-Phe-Val-Ala-Pro],% inhibition,[5],0.0%
same,"viability at 144 h, 10 micrograms per ml",[6],98.1%
same,% inhibition,[7],0.0%
same,viability at 10 micrograms per ml,[8],100%
same,viability at 144 h,[9],100%
same,% inhibition,[10],0.0%
